{"source": "patent US20250325793A1", "about": "“INTRACALVARIOSSEOUS DRUG ADMINISTRATION DEVICE FOR DELIVERING DRUG BY BYPASSING BLOOD-BRAIN BARRIER” (GACHON UNIVERSITY OF INDUSTRY-ACADEMIC COOPERATION …, priority 2023, published 2025)", "key": {"[1]": {"experiment": "Plasma, brain interstitial fluid (microdialysis) and whole-brain drug levels after intravenous (IV) and intracalvariosseous (ICO) administration", "assay_type": "in vivo, rat", "conditions": "for brain-to-plasma ratio (Kp), ICO administration group relative to IV administration group: at 24 hours after administration; for brain-to-plasma ratio (Kp), ICO administration group relative to IV administration group / Cbr (brain drug concentration), ICO administration group relative to IV administration group: fold higher in ICO (5 mg/kg) than IV (0.5 mg/kg); for AUCISF of the ICO administration group compared with the IV administration group: brain interstitial fluid (microdialysis, right hippocampus); for AUCplasma of the ICO administration group compared with the IV administration group: rat plasma; for Cbr (brain drug concentration), ICO administration group relative to IV administration group: whole brain at 24 hours after administration", "description": "The experiment was performed with 5-week-old male rats weighing […]. To ensure statistical independence, only male rats were used in each experiment.\nEight rats were randomly assigned to the IV and ICO administration groups for each compound and were administered continuously from the next day (n=4).\nIn order to perform the experiment, the drug administration device of the present disclosure should be installed on the rats in the ICO administration group, and a guide cannula for a microdialysis probe for measuring the concentration of drugs in the brain should be installed on the rats in both the ICO administration group and the IV administration group.\nAs illustrated in FIG. 9 and FIG. 10, the drug administration device was installed on the left side of the skull of the rats in the ICO administration group, and the guide cannula was installed on the right side, while only the guide cannula was implanted in the skull of the IV administration group.\nThen, in order to implant the microdialysis guide cannula, the rats in the ICO and IV administration groups were anesthetized with isoflurane, and a small hole was drilled in the skull, and the guide cannula was inserted into the right hippocampus (see FIGS. 9 and 10). The inserted guide cannula was fixed with dental cement, and the skin wound was sutured, and then the rats were allowed to recover from the surgery in the cage for one day.\nBefore the drug administration, the membrane of the microdialysis probe was soaked in ethanol and artificial cerebrospinal fluid (aCSF) buffer was perfused through the microdialysis probe at a flow rate of 0.5 μl/min for 1 hour for stabilization.\nIn addition, the ICO administration group was administered at a dose of 5 mg/kg by filling the drug into the receiving portion 100 of the drug administration device.\nThe perfusate of the microdialysis probe was collected every 30 minutes for […] between 8 and 24 hours after administration.\nThe dialysate samples were stored at […] until the time of LC-MS/MS analysis (tandem mass spectrometry).\nBlood samples were immediately centrifuged at 10,000 rpm for 10 minutes at 4° C. to recover plasma. In the case of TMZ, blood samples collected after administration were immediately centrifuged and then 10 μl of plasma was acidified with 2 μl of 0.1% formic acid.\nBrains were excised 24 hours after administration, and PBS (phosphate buffer saline) corresponding to the weight of each tissue sample was added, followed by homogenization using a homogenizer.\nPlasma and homogenized brain tissue samples were stored at […] until LC-MS/MS analysis.\nThe areas under the curve in plasma (AUCplasma) and interstitial fluid (ISF) concentration-time curves (AUCISF) were determined by noncompartmental analysis using WinNonlin 2.1. Brain concentration (Cbr) in the whole brain at 24 hours was corrected for the plasma volume of the corresponding organ using the Expression below, which was determined using LC-MS/MS.\nIn the above Expression, Cbr, quant, 24 h is the brain drug concentration (ng/g) at 24 hours quantified by LC-MS/MS, V0 is the plasma volume of the corresponding organ (μl/g), Cplasma, 24 h at 24 hours is the plasma concentration (ng/ml), and the V0 value for the brain was selected as 9.3±1.1 μl/g.\nCompared to IV administration, the extent of brain uptake after ICO administration was expressed as brain availability (Fbr), which is similar to systemic bioavailability (F), and was calculated as the ratio of AUCISF, IV and AUCISF, ICO using the Expression below.\nIn the above Expression, AUCISF,ICO and AUCISF,IV are the areas under the curves in the brain interstitial fluid-time plot (AUCISF) up to 24 hours after ICO administration and IV administration, respectively."}, "[2]": {"experiment": "Near-infrared (NIR) fluorescence imaging of ICG diffusion in the skull after administration through the installed device", "assay_type": "in vivo, rat", "conditions": "24 hours after 50 μl of ICG (500 μg/ml in saline), NIR fluorescence image", "description": "Next, the integrity of the drug administration device installed in the skull of the rat was tested by near-infrared (NIR) fluorescence imaging using indocyanine green (IGC).\nThe diffusion of ICG into the rat skull was observed by the near-infrared fluorescence imaging of the drug administration device installed in the thinned rat skull.\n50 μl of ICG (500 μg/ml in saline) was administered to the rat with the drug administration device installed. After 24 hours, the rat was anesthetized, placed in a stereotaxic position, and the scalp was cut. For the ICG-NIR fluorescence imaging, a 780 nm laser with 150 mW output was set at a distance of 80 mm and an angle of 20° from the target through a C-clamp on a Z stand for a laser spot size of 15 mm width and 25 mm length, and fluorescence images were recorded at 1 frame per second using basedcam2 software while NIR light was administered through the 780 nm laser."}, "[3]": {"conditions": "up to 24 h, ICO 5 mg/kg vs IV 0.5 mg/kg"}}, "note": "Structures can show the parent of a compound that is named as a salt.", "data": [{"smiles": "CN(C)CCCN1c2ccccc2Sc2ccc(Cl)cc21", "note": "[CPZ, Chlorpromazine hydrochloride]", "values": [{"measurement": "brain-to-plasma ratio (Kp), ICO administration group relative to IV administration group", "setting": "[1]", "value": 35.3, "unit": "times"}, {"measurement": "AUCISF of the ICO administration group compared with the IV administration group", "setting": "[1]; [3]", "value": "no different"}, {"measurement": "AUCplasma of the ICO administration group compared with the IV administration group", "setting": "[1]; [3]", "value": "relatively lower"}, {"measurement": "Cbr (brain drug concentration), ICO administration group relative to IV administration group", "setting": "[1]", "value": 85.1, "unit": "times"}]}, {"smiles": "CCN(C)C(=O)Oc1cccc([C@H](C)N(C)C)c1.O=C(O)C(O)C(O)C(=O)O", "note": "[RVG, rivastigmine i-tartrates]", "values": [{"measurement": "AUCISF of the ICO administration group compared with the IV administration group", "setting": "[1]; [3]", "value": "relatively higher"}]}, {"smiles": "[2H]C([2H])(N)C([2H])([2H])C([2H])([2H])C(=O)O", "note": "[GABA, gamma-aminobutyric acid-d6]", "values": [{"measurement": "brain-to-plasma ratio (Kp), ICO administration group relative to IV administration group", "setting": "[1]", "value": 3.4, "unit": "times"}, {"measurement": "AUCISF of the ICO administration group compared with the IV administration group", "setting": "[1]; [3]", "value": "relatively higher"}, {"measurement": "AUCplasma of the ICO administration group compared with the IV administration group", "setting": "[1]; [3]", "value": "relatively lower"}, {"measurement": "Cbr (brain drug concentration), ICO administration group relative to IV administration group", "setting": "[1]", "value": 3.1, "unit": "times"}]}, {"smiles": "Cn1nnc2c(C(N)=O)ncn2c1=O", "note": "[TMZ, temozolomide]", "values": [{"measurement": "brain-to-plasma ratio (Kp), ICO administration group relative to IV administration group", "setting": "[1]", "value": 1.9, "unit": "times"}, {"measurement": "AUCISF of the ICO administration group compared with the IV administration group", "setting": "[1]; [3]", "value": "relatively higher"}, {"measurement": "AUC ratio (%, AUCISF/AUCplasma), ICO administration group relative to IV administration group", "setting": "[1]; fold higher in ICO than IV group, ICO 5 mg/kg vs IV 0.5 mg/kg", "value": 3.0, "unit": "times"}, {"measurement": "AUCplasma of the ICO administration group compared with the IV administration group", "setting": "[1]; [3]", "value": "relatively lower"}, {"measurement": "Cbr (brain drug concentration), ICO administration group relative to IV administration group", "setting": "[1]", "value": 3.4, "unit": "times"}]}, {"smiles": "Cc1nc2n(c(=O)c1CCN1CCC(c3noc4cc(F)ccc34)CC1)CCCC2", "note": "[RIS, risperidone]", "values": [{"measurement": "AUCISF of the ICO administration group compared with the IV administration group", "setting": "[1]; [3]", "value": "relatively higher"}, {"measurement": "AUCplasma of the ICO administration group compared with the IV administration group", "setting": "[1]; [3]", "value": "relatively lower"}]}, {"smiles": "CC(=O)O[C@H]1C(=O)[C@@]2(C)[C@H]([C@H](OC(=O)c3ccccc3)[C@]3(O)C[C@H](OC(=O)[C@H](O)[C@@H](NC(=O)c4ccccc4)c4ccccc4)C(C)=C1C3(C)C)[C@]1(OC(C)=O)CO[C@@H]1C[C@@H]2O", "note": "[PTX, paclitaxel]", "values": [{"measurement": "AUCISF after ICO administration", "setting": "[1]; ICO 5 mg/kg, brain interstitial fluid, up to 24 h", "value": 796.55, "unit": "ng/min/mL"}, {"measurement": "ISF concentration after IV administration", "setting": "[1]; IV 0.5 mg/kg, all time points, brain interstitial fluid", "value": "below the limit of detection (LOD)"}, {"measurement": "AUCISF of the ICO administration group compared with the IV administration group", "setting": "[1]; [3]", "value": "relatively higher"}, {"measurement": "AUCplasma of the ICO administration group compared with the IV administration group", "setting": "[1]; [3]", "value": "relatively lower"}, {"measurement": "Cbr (brain drug concentration), ICO administration group relative to IV administration group", "setting": "[1]", "value": 294.1, "unit": "times"}]}, {"smiles": "CC1(C)C(/C=C/C=C/C=C/C=C2\\N(CCCCS(=O)(=O)O)c3ccc4ccccc4c3C2(C)C)=[N+](CCCCS(=O)(=O)[O-])c2ccc3ccccc3c21", "note": "[ICG, indocyanine green]", "values": [{"measurement": "ICG signal in the left skull where the drug administration device was installed", "setting": "[2]", "value": "brightly lit"}, {"measurement": "ICG signal in the right skull", "setting": "[2]", "value": "no signal was observed"}]}]}
